Each structure is given as a SMILES string.

The subject of one experiment is MDAMB231. The experiment in a line: CellTiterGlo viability assay, MDAMB231. Type of experiment: cell-based, Human. As for the experimental part:
(§1) In vitro viability assay were performed to assess the effects of compounds on cell viability in selected cell lines over ˜72 hrs using the CellTiterGlo (CTG, Promega-G7573) assay. The tests were performed in duplicates with treatment of compounds at 9 points, 3.16 folds titration in 96 well plates over ˜72 hrs. The compound starting concentrations were 198 μM. Cell viability assay using CellTiterGlo in 96-well plate were performed. Compound treatment 72 hrs, standard growth conditions, duplicates. Compounds were dissolved to 40 mM with thawed […]. Compounds were serially diluted at 3.16 fold in thawed DMSO, and warmed to 37° C. before being dissolved in media (2 μl+200 μl). After compounds were dissolved in media, media containing compounds were warmed to 37° C. in incubator and then compounds in media were added to cell plates (50 μl+50 μl) in duplicates. The compounds' final concentrations were from […] to 19.9 nM. All compound solubilities were checked and recorded again, then the plates were transferred to CO2 tissue culture incubator immediately and incubated for 3 days. DMSO final concentration is 0.5%.

For another experiment, the system named is MV4-11. Kind of experiment: CellTiterGlo viability assay, MV4-11. Type of experiment: cell-based. The conditions noted are these: Homo sapiens, MV4-11, 72 h, read-out: IC50 MV4-11. As for the experimental part: as §1
For orientation: ATP-based viability assays read luminescence as a measure of living cells.

The next experiment has as its system Murine leukemia L1210. Kind of experiment: Cell proliferation (Coulter count) assay, L1210. It counts as cell-based. To be noted: Mus musculus, 48 h, read-out: absolute IC50, L1210. In a few lines: (§2)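 Cells grown in DMEM with 10% FBS. HeLa seeded at 10 000 cells/well, compound added after 24 h, counted day 5; L1210 and CEM seeded at 60 000 cells/well with compound, counted after 48 h and 72 h respectively. IC50 is concentration halving proliferation by Coulter count.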

Experiment [1] deals with human cervix carcinoma HeLa cells. The experiment in a line: Cell proliferation (Coulter count) assay, HeLa. It counts as cell-based. The conditions noted are these: 120 h, cell count on day 5, read-out: absolute IC50, HeLa. In a few lines: as §2
For a further experiment, the system named is human T-lymphocyte CEM. Kind of experiment: Cell proliferation (Coulter count) assay, CEM. The conditions noted are these: 72 h, read-out: absolute IC50, CEM. It counts as cell-based. The essentials:
as §2

A further experiment relates to K562. Kind of experiment: CellTiterGlo viability assay, K562. Type of experiment: cell-based. To be noted: Homo sapiens, K562, 72 h, read-out: IC50 K562. As for the experimental part:
as §1

A further experiment concerns HL-60. Kind of experiment: CellTiterGlo viability assay, HL-60. The conditions noted are these: Homo sapiens, HL-60, 72 h, read-out: IC50 HL-60. It counts as cell-based. As for the experimental part: as §1
Another experiment deals with HEL92.1.7. Kind of experiment: CellTiterGlo viability assay, HEL92.1.7. It counts as cell-based. The conditions noted are these: Homo sapiens, HEL 92.1.7, 72 h, read-out: IC50 HEL92.1.7. As for the experimental part:
as §1

In the next experiment the test system is NCI-H929. Kind of experiment: CellTiterGlo viability assay, NCI-H929. It counts as cell-based. The conditions noted are these: Homo sapiens, NCI-H929, 72 h, read-out: IC50 NCI-H929. As for the experimental part:
as §1

The subject of a further experiment is CCRFCEM. The experiment in a line: CellTiterGlo viability assay, CCRFCEM. It counts as cell-based. The conditions noted are these: Homo sapiens, CCRF-CEM, 72 h, read-out: IC50 CCRFCEM. On the procedure:
as §1

In a further experiment the test system is MCF7. Kind of experiment: CellTiterGlo viability assay, MCF7. Type of experiment: cell-based. The conditions noted are these: Homo sapiens, MCF7, 72 h, read-out: IC50 MCF7. As for the experimental part:
as §1

The next experiment relates to RL. Kind of experiment: CellTiterGlo viability assay, RL. Type of experiment: cell-based. The conditions noted are these: Homo sapiens, RL, 72 h, read-out: IC50 RL. As for the experimental part: as §1
The test system of the next experiment is KG-1. The experiment in a line: CellTiterGlo viability assay, KG-1. To be noted: Homo sapiens, KG-1, 72 h, read-out: IC50 KG-1. It counts as cell-based. On the procedure:
as §1

The test system of a further experiment is RPMI-8226. The experiment in a line: CellTiterGlo viability assay, RPMI-8226. Type of experiment: cell-based, Human. The conditions noted are these: Homo sapiens, RPMI-8226, 72 h, read-out: IC50 RPMI-8226. On the procedure: as §1

A word on the IC50: it is the concentration at which inhibition is half-maximal. As for `CC(C)C[C@H](NP(=O)(OC[C@H]1O[C@@H](n2c(Cl)nc3c(N)ncnc32)C(O)C1O)Oc1cccc2ccccc12)C(=O)OCc1ccccc1` (stereo partly drawn) [H, 5′-([(Benzyloxy-L-leucin-N-yl)-naphth-1-yl]-phosphatyl) 8-chloroadenosine], the “MI% MDAMB231” value with MDAMB231 (CellTiterGlo, 72 hrs) was 99%. The IC50 in the experiment with MDAMB231 (Homo sapiens, MDA-MB-231, 72 h, read-out: IC50 MDAMB231) lay within 5 to 15 µM; with MV4-11, 0.1 to 5 µM; with Murine leukemia L1210, 5 to 15 µM; in [1], 0.1 to 5 µM; in the experiment on human T-lymphocyte CEM it was 0.1 to 5 µM; in the experiment on K562 it was 0.1 to 5 µM. In addition, the IC50 in the experiment on HL-60 fell in the range of 5 to 15 µM; with HEL92.1.7, 0.1 to 5 µM; with NCI-H929, 0.1 to 5 µM; in the experiment with CCRFCEM, 5 to 15 µM; with MCF7, 0.1 to 5 µM; in the experiment with RL, 15 to 100 µM. Also, the half-inhibitory concentration (IC50) in the experiment with KG-1 lay within 5 to 15 µM; with RPMI-8226, 0.1 to 5 µM.
